According to PubChem BioAssay AID250 (DTP/NCI, 2004):
Several values for one entry are separate records, joined by “and”; a condition that tells them apart may be missing. Equal entries are not always repeated. Toxic doses and inconclusive results are not listed. The calls were made as follows: active = survival T/C of 150% or more; inactive = T/C below 125% in these data.

Test system: BDF1 mice, L1210 leukemia sc, survival T/C
Experiment: NCI In Vivo Anticancer Drug Screen. Data for tumor model L1210 Leukemia (subcutaneous) in B6D2F1 (BDF1) mice
Conditions: higher = longer survival
Procedure, shortened: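 Transplantable tumor-bearing mice; survival or tumor size recorded; result = T/C, treated vs vehicle control.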

[1] = endpoint: median survival time, dose: 14.0 mg/kg/injection, schedule: Q01DX Z (sc), vehicle: carboxymethylcellulose (CMC)
[2] = endpoint: median survival time, dose: 23.0 mg/kg/injection, schedule: Q01DX Z (sc), vehicle: carboxymethylcellulose (CMC)
[3] = endpoint: median survival time, dose: 1.08 mg/kg/injection, schedule: Q01DX Z (sc), vehicle: saline
[4] = endpoint: median survival time, dose: 1.8 mg/kg/injection, schedule: Q01DX Z (sc), vehicle: saline
[5] = endpoint: median survival time, dose: 3.0 mg/kg/injection, schedule: Q01DX Z (sc), vehicle: saline
[6] = endpoint: median survival time, dose: 5.0 mg/kg/injection, schedule: Q01DX Z (sc), vehicle: saline
[7] = endpoint: median survival time, dose: 39.0 mg/kg/injection, schedule: Q01DX Z (sc), vehicle: methylcellulose (MC)
[8] = endpoint: median survival time, dose: 65.0 mg/kg/injection, schedule: Q01DX Z (sc), vehicle: methylcellulose (MC)

Measured: T/C

O=C(Nc1ccc(C2=NCCCN2)cc1)c1ccc(C(=O)Nc2ccc(C3=NCCCN3)cc2)nc1
inactive: endpoint: median survival time, dose: 3.0 mg/kg/injection, schedule: Q01DX Z (sc), vehicle: water 100 % of control | endpoint: median survival time, dose: 5.0 mg/kg/injection, schedule: Q01DX Z (sc), vehicle: water 100 % of control | endpoint: median survival time, dose: 8.4 mg/kg/injection, schedule: Q01DX Z (sc), vehicle: water 100 % of control | endpoint: median survival time, dose: 14.0 mg/kg/injection, schedule: Q01DX Z (sc), vehicle: water 88 % of control | endpoint: median survival time, dose: 23.0 mg/kg/injection, schedule: Q01DX Z (sc), vehicle: water 100 % of control

O=NN(CCF)C(=O)NC12CC3CC(CC(C3)C1)C2
inactive: [1] 100 % of control | [2] 100 % of control
active: endpoint: median survival time, dose: 65.0 mg/kg/injection, schedule: Q01DX Z (sc), vehicle: carboxymethylcellulose (CMC) 388 % of control | endpoint: median survival time, dose: 108.0 mg/kg/injection, schedule: Q01DX Z (sc), vehicle: carboxymethylcellulose (CMC) 200 % of control

S=P(N1CC1)(N1CC1)N1CC1
inactive: [3] 110 % of control | endpoint: median survival time, dose: 1.5 mg/kg/injection, schedule: Q01DX009 (ip), vehicle: water 113 % of control | endpoint: median survival time, dose: 1.5 mg/kg/injection, schedule: Q01DX009 (sc), vehicle: water 105 % of control | [4] 100 % of control and 110 % of control | [5] 112 % of control | endpoint: median survival time, dose: 6.0 mg/kg/injection, schedule: Q01DX009 (ip), vehicle: water 94 % of control | endpoint: median survival time, dose: 12.0 mg/kg/injection, schedule: Q01DX009 (sc), vehicle: water 86 % of control | endpoint: median survival time, dose: 14.0 mg/kg/injection, schedule: Q01DX Z (sc), vehicle: saline 120 % of control | endpoint: median survival time, dose: 23.0 mg/kg/injection, schedule: Q01DX Z (sc), vehicle: saline 104 % of control and 120 % of control
active: [6] 156 % of control | endpoint: median survival time, dose: 6.0 mg/kg/injection, schedule: Q01DX009 (sc), vehicle: water 169 % of control | endpoint: median survival time, dose: 8.4 mg/kg/injection, schedule: Q01DX Z (sc), vehicle: saline 170 % of control

CS(=O)(=O)OCCCl
inactive: endpoint: median survival time, dose: 14.0 mg/kg/injection, schedule: Q01DX Z (sc), vehicle: methylcellulose (MC) 90 % of control | endpoint: median survival time, dose: 23.0 mg/kg/injection, schedule: Q01DX Z (sc), vehicle: methylcellulose (MC) 95 % of control | [7] 90 % of control | [8] 100 % of control

Nc1nc(N)c2nc(CN(CCO)c3ccc(C(=O)NC(CCC(=O)O)C(=O)O)cc3)cnc2n1 (stereo unspecified)
active: endpoint: mean survival time, dose: 2.0 mg/kg/injection, schedule: Q01DX009 (ip), vehicle: sodium bicarbonate 160 % of control | endpoint: mean survival time, dose: 4.0 mg/kg/injection, schedule: Q01DX009 (ip), vehicle: sodium bicarbonate 160 % of control | endpoint: mean survival time, dose: 8.0 mg/kg/injection, schedule: Q01DX009 (ip), vehicle: sodium bicarbonate 191 % of control | endpoint: mean survival time, dose: 16.0 mg/kg/injection, schedule: Q01DX009 (ip), vehicle: sodium bicarbonate 154 % of control
inactive: endpoint: mean survival time, dose: 8.0 mg/kg/injection, schedule: Q04DX003 (ip), vehicle: sodium bicarbonate 123 % of control

CC(=O)[C@@]1(O)CC[C@H]2[C@@H]3C[C@H](C)C4=CC(=O)C=C[C@]4(C)[C@@]3(F)[C@@H](O)C[C@@]21C
inactive: [7] 111 % of control | [8] 105 % of control | endpoint: median survival time, dose: 108.0 mg/kg/injection, schedule: Q01DX Z (sc), vehicle: methylcellulose (MC) 111 % of control | endpoint: median survival time, dose: 180.0 mg/kg/injection, schedule: Q01DX Z (sc), vehicle: methylcellulose (MC) 111 % of control | endpoint: median survival time, dose: 300.0 mg/kg/injection, schedule: Q01DX Z (sc), vehicle: methylcellulose (MC) 111 % of control | endpoint: median survival time, dose: 500.0 mg/kg/injection, schedule: Q01DX Z (sc), vehicle: methylcellulose (MC) 100 % of control

CC1CC(C)(O)CC(C(O)CC2CC(=O)NC(=O)C2)C1=O (stereo unspecified)
inactive: endpoint: median survival time, dose: 0.14 mg/kg/injection, schedule: Q01DX Z (sc), vehicle: saline 108 % of control | endpoint: median survival time, dose: 0.24 mg/kg/injection, schedule: Q01DX Z (sc), vehicle: saline 120 % of control | endpoint: median survival time, dose: 0.39 mg/kg/injection, schedule: Q02DX Z (sc), vehicle: saline 120 % of control | endpoint: median survival time, dose: 0.4 mg/kg/injection, schedule: Q01DX Z (sc), vehicle: saline 116 % of control | endpoint: median survival time, dose: 0.65 mg/kg/injection, schedule: Q02DX Z (sc), vehicle: saline 120 % of control | endpoint: median survival time, dose: 0.67 mg/kg/injection, schedule: Q01DX Z (sc), vehicle: saline 116 % of control | [3] 120 % of control | endpoint: median survival time, dose: 1.08 mg/kg/injection, schedule: Q02DX Z (sc), vehicle: saline 120 % of control | endpoint: median survival time, dose: 1.08 mg/kg/injection, schedule: Q## X Z (sc), vehicle: saline 110 % of control | endpoint: median survival time, dose: 1.12 mg/kg/injection, schedule: Q01DX Z (sc), vehicle: saline 104 % of control | [4] 120 % of control | endpoint: median survival time, dose: 1.8 mg/kg/injection, schedule: Q02DX Z (sc), vehicle: saline 120 % of control | endpoint: median survival time, dose: 1.8 mg/kg/injection, schedule: Q## X Z (sc), vehicle: saline 110 % of control | endpoint: median survival time, dose: 1.87 mg/kg/injection, schedule: Q01DX Z (sc), vehicle: saline 100 % of control | endpoint: median survival time, dose: 3.0 mg/kg/injection, schedule: Q01DX001 (sc), vehicle: saline 120 % of control | [5] 110 % of control | endpoint: median survival time, dose: 3.0 mg/kg/injection, schedule: Q## X Z (sc), vehicle: saline 115 % of control | endpoint: median survival time, dose: 3.11 mg/kg/injection, schedule: Q01DX Z (sc), vehicle: saline 100 % of control | endpoint: median survival time, dose: 5.0 mg/kg/injection, schedule: Q01DX001 (sc), vehicle: saline 120 % of control | [6] 100 % of control | endpoint: median survival time, dose: 5.0 mg/kg/injection, schedule: Q## X Z (sc), vehicle: saline 115 % of control | endpoint: median survival time, dose: 8.4 mg/kg/injection, schedule: Q02DX Z (sc), vehicle: saline 110 % of control | endpoint: median survival time, dose: 8.4 mg/kg/injection, schedule: Q## X Z (sc), vehicle: saline 120 % of control | endpoint: median survival time, dose: 14.0 mg/kg/injection, schedule: Q02DX Z (sc), vehicle: saline 100 % of control | endpoint: median survival time, dose: 14.0 mg/kg/injection, schedule: Q## X Z (sc), vehicle: saline 120 % of control

CCOC1=C(N2CC2)C(=O)C(OCC)=C(N2CC2)C1=O
inactive: endpoint: median survival time, dose: 3.0 mg/kg/injection, schedule: Q01DX Z (sc), vehicle: carboxymethylcellulose (CMC) 109 % of control | [1] 122 % of control | [2] 109 % of control

O=c1cnn(C2OC(CO)C(O)C2O)c(=O)[nH]1 (stereo unspecified)
inactive: endpoint: median survival time, dose: 37.5 mg/kg/injection, schedule: Q01DX009 (ip), vehicle: water 114 % of control | endpoint: median survival time, dose: 75.0 mg/kg/injection, schedule: Q01DX009 (ip), vehicle: water 118 % of control and 121 % of control | endpoint: median survival time, dose: 75.0 mg/kg/injection, schedule: Q01DX009 (sc), vehicle: water 120 % of control | endpoint: median survival time, dose: 108.0 mg/kg/injection, schedule: Q01DX Z (sc), vehicle: other 120 % of control | endpoint: median survival time, dose: 150.0 mg/kg/injection, schedule: Q01DX009 (ip), vehicle: water 117 % of control and 120 % of control | endpoint: median survival time, dose: 150.0 mg/kg/injection, schedule: Q01DX009 (sc), vehicle: water 121 % of control and 122 % of control | endpoint: median survival time, dose: 180.0 mg/kg/injection, schedule: Q01DX Z (sc), vehicle: other 120 % of control | endpoint: median survival time, dose: 300.0 mg/kg/injection, schedule: Q01DX009 (ip), vehicle: water 117 % of control and 123 % of control | endpoint: median survival time, dose: 300.0 mg/kg/injection, schedule: Q01DX009 (sc), vehicle: water 117 % of control and 122 % of control | endpoint: median survival time, dose: 300.0 mg/kg/injection, schedule: Q01DX Z (sc), vehicle: other 120 % of control | endpoint: median survival time, dose: 500.0 mg/kg/injection, schedule: Q01DX Z (sc), vehicle: other 120 % of control | endpoint: median survival time, dose: 600.0 mg/kg/injection, schedule: Q01DX009 (ip), vehicle: water 118 % of control | endpoint: median survival time, dose: 600.0 mg/kg/injection, schedule: Q01DX009 (sc), vehicle: water 117 % of control | endpoint: median survival time, dose: 833.0 mg/kg/injection, schedule: Q01DX Z (sc), vehicle: other 110 % of control | endpoint: median survival time, dose: 1000.0 mg/kg/injection, schedule: Q01DX Z (sc), vehicle: other 122 % of control | endpoint: median survival time, dose: 1200.0 mg/kg/injection, schedule: Q01DX009 (ip), vehicle: water 104 % of control and 117 % of control | endpoint: median survival time, dose: 1200.0 mg/kg/injection, schedule: Q01DX009 (sc), vehicle: water 114 % of control
